Data: patent US20250250310A1, “COMBINATION THERAPY WITH ADP-RIBOSE BINDING PEPTIDE AND ADP-RIBOSE FOR PREVENTION OR TREATMENT OF CANCER” (PEARLSINMIRES CO., LTD., priority 2023, published 2025)
Where a SMILES comes first, the peptide text is derived from it. [ ]: non-standard residue; d: D form. The star is where a group is joined. Stearoyl = CCCCCCCCCCCCCCCCCC(=O)*; AEEA = NCCOCCOCC(=O)O

Columns and labels:
[1] = test system: ovarian cancer (OVCAR-3) cells; test: OVCAR-3 cell viability (MTT), peptides and NAD^+ alone or in combination; format: cell-based, human; settings: NAD^+ 1 mM alone, 96 hours
Protocol: (§1) Specifically, 2.5×10^3 ovarian cancer (OVCAR-3) cells were cultured in a 96-well plate for 24 hours under 37° C. and 5% CO2 conditions, and then divided into the following groups and treated with each peptide according to Examples at GI50 concentration alone or in combination. • 1) Untreated group • 2) Group treated with NAD^+ at 1 mM concentration alone • 3) Group treated with peptide of Example 2 at 25 μM concentration alone • 4) Group treated with CPP-peptide of Example 16 at 10 μM concentration alone • 5) Group treated in combination with NAD^+ at 1 mM concentration and peptide of Example 2 at 25 μM concentration (Combination 1) • 6) Group treated in combination with NAD^+ at 1 mM concentration and CPP-peptide of Example 16 at 10 μM concentration (Combination 2)
(§2) The cells were then cultured for another 96 hours under 37° C. and 5% CO2 conditions, and 10 μl of 3-(4,5-dimethylthiazol-2-yl)-2,5-diphenyltetrazolium bromide reagent was added to each well and reacted for 1 hour. The reagent was removed at the end of the reaction, 200 μl of dimethyl sulfoxide was then added to each well, and the absorbance was measured to determine the cell viability.

MDA-MB-231 cancer cells = test: MDA-MB-231 cell viability (MTT), sustained release derivative alone or in combination; format: cell-based; settings: 96 hours
Protocol: Each of 2.5×10^3 human-derived pancreatic cancer (Aspc-1), kidney cancer (Caki-1), breast cancer (HCC1937), liver cancer (HepG2), lung cancer (H1975), colon cancer (HCT116), ovarian cancer (OVCAR-3), brain cancer (U87) cells were cultured in a 96-well plate under 37° C. and 5% CO2 conditions for 24 hours, and then treated with the sustained release derivative alone. In addition, MDA-MB-231 cancer cells were divided into the following groups and treated with each formulation at GI20 concentration alone or in combination. • 1) Untreated group • 2) Group treated with sustained-release derivative alone at 5 μM concentration • 3) Group treated with ADPR at 2 mM concentration alone • 4) Group treated with NAD^+ at 2 mM concentration alone • 5) Groups treated with various anti-cancer drugs alone (Cisplatin at 2 μM, Docetaxel at 1 μM, Dichloroacetate at 3 mM, Doxorubicin at 2 μM, Sorafenib at 2 μM, Osimertinib at 10 nM, Trastuzumab at 0.2 μM, Bevacizumab at 0.2 nM, Tamoxifen at 0.2 μM, or Olaparib at 1 μM) • 6) Group treated in combination with ADPR at 2 mM concentration and a sustained-release derivative at 5 μM concentration • 7) Group treated in combination with ADPR at 2 mM concentration, NAD^+ at 2 mM concentration, and a sustained-release derivative at 5 μM concentration • 8) Group treated in combination with ADPR at 2 mM concentration, a sustained-release derivative at 5 μM concentration, and various anti-cancer drugs (same concentration as Group 5 above).
as §2, with “at” for “under”, “CO2,” for “CO2 conditions,”

[2] = test system: PARP inhibitor-resistant breast cancer (HCC1937) cells; test: Cell viability (MTT) in PARP inhibitor-resistant cancer cell line; format: cell-based, human; settings: 96 hours
Protocol: Specifically, 2.5×10^3 PARP inhibitor-resistant breast cancer (HCC1937) cells were cultured in a 96-well plate for 24 hours under 37° C. and 5% CO2 conditions.
The cells were then divided into the following groups and treated with each peptide according to Examples at GI50 concentration alone or in combination. • 1) Untreated group • 2) Group treated with PARP inhibitor (Olaparib) at 2 μM concentration • 3) Group treated with ADPR at 1 mM concentration alone • 4) Groups treated with each peptide of Examples 1 to 6 at 25 μM concentration alone • 5) Groups treated with each CPP-peptide of Examples 15 to 20 at 10 μM concentration alone • 6) Group treated in combination with ADPR at 1 mM concentration and each peptide of Examples 1 to 6 at 25 μM concentration (Combination 1) • 6) Group treated in combination with ADPR at 1 mM concentration and CPP-peptide of Examples 15 to 20 at 10 μM concentration (Combination 2)
as §2

[3] = test system: Kidney cancer (Caki-1) cells; test: Caki-1 cell viability (MTT), peptides and ADP-ribose alone or in combination; format: cell-based, human; settings: treated groups vs untreated, ADPR 1 mM, peptide 25 μM, CPP-peptide 10 μM, 96 hours
Protocol: (§3) 2.5×10^3 Kidney cancer (Caki-1) cells were cultured in a 96-well plate for 24 hours under 37° C. and 5% CO2 conditions, and then divided into the following groups and treated with each peptide according to Examples at GI50 concentration alone or in combination. • 1) Untreated group • 2) Group treated with ADPR at 1 mM concentration alone • 3) Group treated with peptide of Example 1 at 25 μM concentration alone • 4) Group treated with each CPP-peptide of Example 15 at 10 μM concentration alone • 5) Group treated in combination with ADPR at 1 mM concentration and peptide of Example 1 at 25 μM concentration (Combination 1) • 6) Group treated in combination with ADPR at 1 mM concentration and CPP-peptide of Example 15 at 10 μM concentration (Combination 2)
as §2

[4] = test system: Breast cancer (HCC1937) cells; test: HCC1937 cell viability (MTT), peptides and ADP-ribose alone or in combination; format: cell-based, human; settings: treated groups vs untreated, ADPR 1 mM, peptide 25 μM, CPP-peptide 10 μM, 96 hours
Protocol: as §1, with “2.5×10^3 Breast” for “Specifically, 2.5×10^3 ovarian”, “2.5×10^3 Breast cancer (HCC1937)” for “Specifically, 2.5×10^3 ovarian cancer (OVCAR-3)”, “Breast cancer (HCC1937) cells were” for “ovarian cancer (OVCAR-3) cells were”, “treated with ADPR at 1” for “treated with NAD^+ at 1”, “treated with each CPP-peptide of” for “treated with CPP-peptide of”, “combination with ADPR at 1” for “combination with NAD^+ at 1”
as §2

[5] = test system: Pancreatic cancer (AsPC-1) cells; test: AsPC-1 cell viability (MTT), peptides and ADP-ribose alone or in combination; format: cell-based, human; settings: treated groups vs untreated, ADPR 1 mM, peptide 25 μM, CPP-peptide 10 μM, 96 hours
Protocol: as §3, with “2.5×10^3 Pancreatic” for “2.5×10^3 Kidney”, “cancer (AsPC-1)” for “cancer (Caki-1)”, “Example 3” for “Example 1”, “Example 17” for “Example 15”
as §2

[6] = test system: Liver cancer (HepG2) cells; test: HepG2 cell viability (MTT), peptides and ADP-ribose alone or in combination; format: cell-based, human; settings: treated groups vs untreated, ADPR 1 mM, peptide 25 μM, CPP-peptide 10 μM, 96 hours
Protocol: as §3, with “2.5×10^3 Liver” for “2.5×10^3 Kidney”, “cancer (HepG2)” for “cancer (Caki-1)”, “Example 4” for “Example 1”, “Example 18” for “Example 15”
as §2

[7] = test system: Lung cancer (H1975) cells; test: H1975 cell viability (MTT), peptides and ADP-ribose alone or in combination; format: cell-based, human; settings: treated groups vs untreated, ADPR 1 mM, peptide 25 μM, CPP-peptide 10 μM, 96 hours
Protocol: as §3, with “2.5×10^3 Lung” for “2.5×10^3 Kidney”, “cancer (H1975)” for “cancer (Caki-1)”, “Example 5” for “Example 1”, “Example 19” for “Example 15”
as §2

[8] = test system: Colon cancer (HCT116) cells; test: HCT116 cell viability (MTT), peptides and ADP-ribose alone or in combination; format: cell-based, human; settings: treated groups vs untreated, ADPR 1 mM, peptide 25 μM, CPP-peptide 10 μM, 96 hours
Protocol: as §3, with “2.5×10^3 Colon” for “2.5×10^3 Kidney”, “cancer (HCT116)” for “cancer (Caki-1)”, “Example 6” for “Example 1”, “Example 20” for “Example 15”
as §2

[9] = Normal cytotoxicity of sustained release derivative alone or in combination (MTT); format: cell-based; settings: human, MRC5 cells (normal), sustained-release derivative alone, read-out: viability of normal cells compared to the untreated group
Protocol: In a 96-well plate, 2.5×10^3 human-derived normal MRC5 cells were cultured for 24 hours under 37° C. and 5% CO2 conditions, and then treated with the sustained-release derivative and ADPR alone or in combination.
as §2, with “96 hours at 37° C.” for “96 hours under 37° C.”, “and 5% CO2, and 10” for “and 5% CO2 conditions, and 10”, “hour. The MTT reagent was” for “hour. The reagent was”

## NC(=O)c1ccc[n+]([C@@H]2O[C@H](COP(=O)(O)OP(=O)(O)OC[C@H]3O[C@@H](n4cnc5c(N)ncnc54)[C@H](O)[C@@H]3O)[C@@H](O)[C@H]2O)c1 [NAD^+, nicotinamide adenine dinucleotide]
[1]
  cell growth / viability vs control group: not significantly different from the control group
MDA-MB-231 cancer cells; Homo sapiens, single treatment (derivative 5 μM, ADPR 2 mM, NAD^+ 2 mM, anti-cancer drugs)
  viability at 2000 µM: 80%

## O=C(c1cc(Cc2n[nH]c(=O)c3ccccc23)ccc1F)N1CCN(C(=O)C2CC2)CC1 [Olaparib, reference compound]
[2]; Homo sapiens, Olaparib 2 μM alone, read-out: cancer cells viable
  viability at 2 µM: ~80%

## Nc1ncnc2c1ncn2[C@@H]1O[C@H](COP(=O)(O)OP(=O)(O)OC[C@H]2O[C@@H](O)C(O)C2O)C(O)C1O (some centres unmarked) [ADP-ribose]
[3]
  cell viability: viability was reduced
[4]
  cell viability: viability was reduced
[5]
  cell viability: viability was reduced
[6]
  cell viability: viability was reduced
[7]
  cell viability: viability was reduced
[8]
  cell viability: viability was reduced
[2]; ADPR 1 mM, peptide 25 μM or CPP-peptide 10 μM alone
  cell viability, single treatment: significantly reduced cell viability
MDA-MB-231 cancer cells; single treatment (derivative 5 μM, ADPR 2 mM, NAD^+ 2 mM, anti-cancer drugs)
  cell viability: 80%

## CCCCCCCCCCCCCCCCCC(=O)NCCCC[C@H](NC(=O)[C@H](CCCNC(=N)N)NC(=O)[C@H](CCCNC(=N)N)NC(=O)[C@H](CCCNC(=N)N)NC(=O)CNC(=O)[C@H](Cc1c[nH]cn1)NC(=O)[C@H](CCC(=O)O)NC(=O)[C@H](CC(N)=O)NC(=O)[C@H](CCCNC(=N)N)NC(=O)[C@H](CCCNC(=N)N)NC(=O)[C@H](Cc1ccc(O)cc1)NC(=O)[C@H](CCC(N)=O)NC(=O)[C@@H](NC(=O)[C@H](CCSC)NC(=O)[C@H](CC(N)=O)NC(=O)[C@H](CCC(=O)O)NC(=O)[C@H](CC(C)C)NC(=O)[C@H](CC(=O)O)NC(=O)[C@H](C)NC(=O)[C@@H](NC(=O)[C@H](Cc1ccc(O)cc1)NC(=O)[C@H](CC(C)C)NC(=O)[C@H](Cc1ccccc1)NC(=O)[C@H](CCC(N)=O)NC(=O)[C@@H]1CCCN1C(=O)[C@H](CCCNC(=N)N)NC(=O)[C@H](CCCNC(=N)N)NC(=O)[C@H](CCCNC(=N)N)NC(=O)[C@H](CCC(N)=O)NC(=O)[C@H](CCCNC(=N)N)NC(=O)[C@H](CCCNC(=N)N)NC(=O)[C@H](CCCCN)NC(=O)[C@H](CCCCN)NC(=O)[C@H](CCCNC(=N)N)NC(=O)CNC(=O)COCCOCCN)C(C)C)C(C)C)C(=O)N[C@H](C(=O)N[C@@H](CCCCN)C(=O)N[C@@H](CCCNC(=N)N)C(N)=O)[C@@H](C)CC [sustained-release derivative] (H-[AEEA]GRKKRRQRRRPQFLYVADLENMVQYRRNEHGRRRK(Stearoyl)IKR-NH2; C-terminus assumed)
MDA-MB-231 cancer cells; sustained-release derivative 5 μM + ADPR 2 mM + NAD^+ 2 mM or various anti-cancer drugs
  cytotoxicity, triple-drug combination: significantly superior cytotoxicity
MDA-MB-231 cancer cells; sustained-release derivative 5 μM + ADPR 2 mM
  cytotoxicity, combination with ADPR: showed cytotoxicity
[9]
  viability at 96 h: ≥ 90%
